Entries after “also recorded” stand apart in the source; their conditions may differ.
Columns and labels:
arterial injury = conditions: 2.25% in the drinking water, long-term; cited from earlier work
creatine biosynthesis = conditions: dietary, man; cited from earlier work
endothelial c-NOS [1] = conditions: L-glutamine 600 μM; above 10 μM to 1,000 μM and more L-arginine; cited from earlier work
[2] = test system: purified endothelial c-NOS; conditions: purified enzyme in vitro; read-out: apparent Michaelis constant (Km); cited from earlier work
[3] = test system: endothelium-dependent vasodilation; conditions: infusion, hypercholesterolemia; cited from earlier work
[4] = cited from earlier work
uterine muscle strips = conditions: added to extracellular fluid; cited from earlier work
[5] = test system: glomerular hyperfiltration; conditions: long-term oral, marked amounts; cited from earlier work
[6] = oral 3-gram single doses, healthy humans; cited from earlier work
spermatocytes = conditions: oral 4 to 20 grams daily; cited from earlier work
[7] = test system: oligemic vasoconstriction; conditions: rats; cited from earlier work
endothelial c-NOS [8] = conditions: plasma L-arginine above normal fasting about 75 to 90 μM; cited from earlier work
[9] = rats, parenteral injection; cited from earlier work
[10] = Total bleeding time, forearm template method (Example 2); type: in vivo, human; conditions: after 4 weeks of 5.4 grams daily in 2 divided doses
Method: The same subject that was studied in Example 1 was studied by total bleeding time determinations before and during ingestion of daily doses of L-citrulline, in two divided subdoses. Forearm bleeding times were done by 3 to 5 mm cuts about 1 mm deep made perpendicular to the fold of the elbow during template methodology and a sphygmomanometer cuff maintained near 40 mm Hg pressure. Control bleeding times were 51/2 minutes. Bleeding time rose to 131/2 minutes after 2 days of ingestion of 8.5 grams daily. Bleeding time was prolonged at 13 minutes after 4 weeks of ingestion of 5.4 grams of L-citrulline daily in 2 divided doses.

[11] = Tolerability during the study of Example 1; type: in vivo, human
Source text: They remained on their usual regular diet and continued working during the study.

[12] = Plasma ultrafiltrate L-arginine level after oral L-citrulline (Example 1); type: in vivo, human
Method: A novel […] method for the quantitative assay of free L-arginine in blood plasma was developed. The method measures the color product from monosubstituted guanidines without and with L-arginase incubation to destroy the arginine and the potential guanido color product that would be derived from L-arginine. The photometric decrease in guanido color product measures specifically the concentration of L-arginine. The L-arginine methodology was applied to ultrafiltrates of blood plasma after ultrafiltrations of separated plasma samples were done at 4° Celsius.
Blood plasma levels after 9 to 10 hours of overnight fasting averaged 83.0±1.1 μM (mean±SD of 3 determinations). Two hours after ingestion of 3.0 grams of L-citrulline in capsular form, plasma L-arginine level rose by […] to 132.7 μM. Overnight fasting plasma levels of L-arginine measured 125.2, 98.1, 90.8, 114.2, and 120.0 μM after ingestion of L-citrulline for 6 days at 6.0 grams, for 13 days at 2.4 grams, for 6 days at 3.4 grams, for 7 days at 6.8 grams, and for 2 days at 8.5 grams, respectively, in 2 divided doses (morning and nightly).

[13] = intestinal-derived, portal venous blood; cited from earlier work
[14] = plasma-borne; cited from earlier work
migraine pains = experiment: Migraine attack, oral L-citrulline capsules (Example 4); type: in vivo, human; conditions: 2.7 grams, again about 1 hour later, third dose 6 hours later
Method: […] Their body weight was 59 kg. The subject gave a history of migraine pains with and without aura for about 15 years. Currently, the migraine pains were recurring about once to a few times weekly. Their parent had experienced migraine headaches for many years.
Shortly after the onset of a severe headache attack, the subject ingested 2.7 grams of L-citrulline, followed by another 2.7 grams about 1 hour later. They ingested a third dose of the same amount 6 hours later.

human platelets = conditions: 300 μM extracellular; L-arginine 30 μM; cited from earlier work
migraine aura = conditions: inhalation of small amounts; cited from earlier work
platelet activity = conditions: cited from earlier work
muscle = conditions: oral supplementation daily; cited from earlier work
hippocampal brain tissue = conditions: extracellular creatine increased by 3 mM; cited from earlier work

## Cl.N=C(N)NCCC[C@H](N)C(=O)O [L-arginine hydrochloride]
Arterial injury
  increase of plasma arginine levels: about 2.6 times
  neoendothelium-dependent arterial muscle relaxation: enhanced neoendothelium-dependent arterial muscle relaxation
  thickening after arterial injury: reduced thickening

## N=C(N)NCCC[C@H](N)C(=O)O [L-arginine]
Creatine biosynthesis
  creatine biosynthesis and pools of creatine and phosphocreatine in muscle and nerve: leads to more creatine biosynthesis and slowly expansible pools of creatine and phosphocreatine
Endothelial c-NOS [1]
  endothelial production of nitric oxide by c-NOS versus extracellular L-arginine: directly dependent upon the extracellular concentrations of L-arginine above 10 μM to levels of 1,000 μM and more without apparent saturation of the enzyme
[2]
  Km: ~6 µM
[3]
  impaired endothelium-dependent vasodilation: impaired endothelium-dependent vasodilation is corrected
[4]; 24.8 grams of L-arginine (30 grams of arginine hydrochloride)
  time of peak plasma arginine level: about 1 hour
[4]; 24.8 grams of L-arginine
  time to return to near fasting values: 3 h
[4]; 24.8 grams of L-arginine, fasting 90±6 μM
  peak plasma arginine relative to fasting values: about 3.6 times
Uterine muscle strips
  muscle quiescence: muscle quiescence
  muscle relaxation: dose-dependent muscle relaxation
  nitric oxide generation: nitric oxide generation
[5]
  glomerular hyperfiltration and abnormal filtration fraction hemodynamics: prevents the glomerular hyperfiltration and abnormal filtration fraction hemodynamics
  proteinuria: ameliorates the proteinuria
[6]
  plasma citrulline levels: without a change in plasma citrulline levels
spermatocytes
  total sperm counts and motility rates: may improve total sperm counts and motility rates
[7]
  oligemic vasoconstriction following cortical spreading depression: reduces the oligemic vasoconstriction
Endothelial c-NOS [8]
  endothelial nitric oxide production: augments endothelial nitric oxide production
[9]
  plasma half-life: about 1 hour

## NC(=O)NCCC[C@H](N)C(=O)O [L-citrulline]
[10]
  Bleeding time: 13 min
[11]
  adverse symptoms or untoward signs: No adverse symptoms or untoward signs were experienced
[12]; 2 hours after single oral 3.0 grams, capsular form
  rise of plasma L-arginine level: 62.4%
[12]; comparison with L-arginine as single amino acid or in protein meals
  elevation of blood plasma L-arginine versus ingestion of equivalent amounts of L-arginine: more efficient and longer lasting
[12]; daily dosage in two divided subdoses
  blood plasma levels of L-arginine after overnight fasting 9 to 10 hours: greater blood plasma levels of L-arginine even after overnight fasting
[12]; single oral doses of 3.0 grams or more, capsule form
  blood plasma concentrations of free L-arginine: promptly raised to much higher levels
[13]
  liver uptake: Without appreciable liver uptake
[14]
  blood-brain barrier passage: readily passes the blood-brain barrier
Migraine pains
  migraine pain: markedly lessened in intensity and in duration
  nausea during the migraine attack: Much less nausea

## NC(=O)CC[C@H](N)C(=O)O [L-glutamine]
Human platelets
  effect on L-arginine uptake: inhibitory

## NCCCC[C@H](N)C(=O)O [L-lysine]
Human platelets
  effect on L-arginine uptake: inhibitory

## NCCC[C@H](N)C(=O)O [L-ornithine]
Human platelets
  effect on L-arginine uptake: inhibitory

## CCCCCON=O [amyl nitrite]
Migraine aura
  migraine aura: temporarily reversed migraine aura in some cases

## CC(=O)Oc1ccccc1C(=O)O [aspirin, acetylsalicylic acid]
Platelet activity; low-dose / small therapeutic doses orally
  total bleeding time: prolongs the total bleeding time; also recorded: prolonged
Platelet activity; low-dose intake
  platelet activity: inhibits platelet activity

## CN(CC(=O)O)C(=N)N [creatine]
muscle
  muscle fatigue with physical exercise: lessened muscle fatigue
  muscle stores of free creatine and phosphocreatine: greater muscle stores of free creatine and phosphocreatine
Hippocampal brain tissue
  neurocyte viabilities after anoxic periods: greater neurocyte viabilities
  neuronal free creatine and phosphocreatine levels: large increases in neuronal free creatine and phosphocreatine levels

Reference: US6028107A, “Orthomolecular medical use of L-citrulline for vasoprotection, relaxative smooth muscle tone and cell protection” (priority 1997, dated 2000)
